Measured values taken from US12649725B2 (Worcester Polytechnic Institute, priority 2020, dated 2026).
Read-outs that look alike come from different tables or passages of the source.

Assays:
KB cells [1] = experiment: Cytotoxicity assay (CellTiter-Glo) in KB cells; format: cell-based; settings: 48 hours post drug incubation, cell viability by CellTiter-Glo, triplicate, read-out: Chromenone cytotoxicity IC50, KB
Description: (§1) Jurkat and L5178Y cells were cultured in RPMI 1640 (ATCC), HL60 cells were cultured in Iscove's Modified Dulbecco's Medium (IMDM, ATCC), KB and MCF7 cells were cultured in Eagles Minimum Essential Medium (EMEM, ATCC), and SKOV3 cells in McCoy's 5a Medium (ATCC) supplemented with 10% Heat Inactivated Fetal Bovine Serum (FBS), and Penicillin and Streptomycin (P/S) at 37° C. in a 5% CO2 incubator.
(§2) Proliferating cells were seeded at approximately 20×10^3 cells per 50 μL per well into 96 well plates using a MultiFlo FX multi-mode dispenser (BioTek). On reaching ≈40% cell density, the cells were then incubated with varying concentrations (195 nM to 200 μM final) of test samples using a Biomek FXP Automated Workstation (Beckman Coulter). 48 hours post drug incubation, cell viability was determined using Promega's CellTiter-Glo Luminescent Cell Viability Assay according to the manufacturer's protocol on a plate reader (EnVision from PerkinElmer) in Luminescence mode. In each experiment, each unique condition (i.e., different sample type and concentration) was tested in triplicate. The percentage of test sample induced toxicity was calculated with respect to DMSO treated cells and graphed to give dose response curves. IC50 values for each treatment were calculated using Graph-Pad Prism 8.0 Software.

HL60 cells [2] = experiment: Cytotoxicity assay (CellTiter-Glo) in HL60 cells; format: cell-based; settings: 48 hours post drug incubation, cell viability by CellTiter-Glo, triplicate
Description: as §1
as §2, with “The percentage of test sample induced toxicity was calculated with respect to DMSO treated cells and graphed to give dose response curves.” left out

Jurkat cells [3] = experiment: Cytotoxicity assay (CellTiter-Glo) in Jurkat cells; format: cell-based; settings: for Cytotoxicity in Jurkat screening (in words): cytotoxicity screening in Jurkat cell lines, FIG. 20
Description: as §1
as §2, with “The percentage of test sample induced toxicity was calculated with respect to DMSO treated cells and graphed to give dose response curves.” left out

L5178Y cells [4] = experiment: Cytotoxicity assay (CellTiter-Glo) in L5178Y cells; format: cell-based; settings: 48 hours post drug incubation, cell viability by CellTiter-Glo, triplicate
Description: as §1
as §2, with “The percentage of test sample induced toxicity was calculated with respect to DMSO treated cells and graphed to give dose response curves.” left out

[5] = Cytotoxicity assay (CellTiter-Glo) in KB cells; format: cell-based; settings: human, 48 hours post drug incubation, cell viability by CellTiter-Glo, triplicate, read-out: Chromenone cytotoxicity IC50, KB
Description: as §1, §2

[6] = Cytotoxicity assay (CellTiter-Glo) in L5178Y cells; format: cell-based; settings: mouse, 48 hours post drug incubation, cell viability by CellTiter-Glo, triplicate, read-out: Chromenone cytotoxicity IC50, L5178Y
Description: as §1
as §2, with “The percentage of test sample induced toxicity was calculated with respect to DMSO treated cells and graphed to give dose response curves.” left out

[7] = Cytotoxicity assay (CellTiter-Glo) in HL60 cells; format: cell-based; settings: human, 48 hours post drug incubation, cell viability by CellTiter-Glo, triplicate, read-out: Chromenone cytotoxicity IC50, HL60
Description: as §1
as §2, with “The percentage of test sample induced toxicity was calculated with respect to DMSO treated cells and graphed to give dose response curves.” left out

[8] = Cytotoxicity assay (CellTiter-Glo) in Jurkat cells; format: cell-based; settings: human; Jurkat cells, 48 hours post drug incubation, cell viability by CellTiter-Glo, triplicate; read-out: Chromenone cytotoxicity IC50, Jurkat
Description: as §1
as §2, with “The percentage of test sample induced toxicity was calculated with respect to DMSO treated cells and graphed to give dose response curves.” left out

L5178Y cells [9] = settings: read-out: Cytotoxicity IC50, L5178Y (natural product comparator), other cells 'Not available'; cited from earlier work
KB cells [10] = settings: read-out: Cytotoxicity IC50, KB (natural product comparator), other cells 'Not available'; cited from earlier work
Jurkat cells [11] = settings: comparator natural product, other cells 'Not available', read-out: Cytotoxicity IC50, Jurkat (natural product comparator); cited from earlier work
HL60 cells [12] = settings: comparator natural product, other cells 'Not available', read-out: Cytotoxicity IC50, HL60 (natural product comparator); cited from earlier work

With “3-Acetyl-5-hydroxy-2-methyl-4H-1-benzopyran-4-one Dimer [Compound 43]” the IC50 (KB cells [1]) was over 50 µM, the IC50 (HL60 cells [2]; read-out: Chromenone cytotoxicity IC50, HL60) was over 50 µM and the IC50 (Jurkat cells [3]; Jurkat cells, 48 hours post drug incubation, cell viability by CellTiter-Glo, triplicate, read-out: Chromenone cytotoxicity IC50, Jurkat) was 39 ± 1.1 µM. The IC50 (L5178Y cells [4]; read-out: Chromenone cytotoxicity IC50, L5178Y) was over 50 µM.

With `COC(=O)C(C)(C)c1cc(=O)c2c(O)ccc(-c3ccc(O)c4c(=O)cc(C(C)(C)C(=O)OC)oc34)c2o1` [Compound 28c, Dimethyl 2,2′-(5,5′-Dihydroxy-4,4′-dioxo-4H,4′H-[8,8′-bichromene]-2,2′-diyl)bis(2-methylpropanoate)] the IC50 at 48 h [5] was over 50 µM, the “Chromenone cytotoxicity IC50, HL60” value (HL60 cells [2]) was “low micromolar range” and the “Cytotoxicity in Jurkat screening (in words)” value (“Cytotoxicity … (in words)” below) (Jurkat cells [3]) was “highest levels of cytotoxicity”. The IC50 at 48 h [6] was 23 µM and the “Chromenone cytotoxicity IC50, L5178Y” value (L5178Y cells [4]) was “low micromolar range”.

For `O=c1cc(C2CCCO2)oc2c(-c3ccc(O)c4c(=O)cc(C5CCCO5)oc34)ccc(O)c12` (stereo not shown) [Compound 28e, 5,5′-Dihydroxy-2,2′-bis(tetrahydrofuran-2-yl)-4H,4′H-[8,8′-bichromene]-4,4′-dione], the IC50 at 48 h [5] was over 50 µM, the IC50 at 48 h [7] was over 50 µM and the “Cytotoxicity … (in words)” value (Jurkat cells [3]) was “highest levels of cytotoxicity”. The IC50 at 48 h [6] was over 50 µM.

For `COC(=O)C(C)(C)c1cc(=O)c2c(OC)c(-c3ccc4oc(C(C)(C)C(=O)OC)cc(=O)c4c3OC)ccc2o1` [Compound 35c, Dimethyl 2,2′-(5,5′-Dimethoxy-4,4′-dioxo-4H,4′H-[6,6′-bichromene]-2,2′-diyl)bis(2-methylpropanoate)], the IC50 at 48 h [5] was 41 ± 1.1 µM and the “Cytotoxicity … (in words)” value (Jurkat cells [3]) was “highest levels of cytotoxicity”.

For `COC(=O)C(C)(C)c1cc(=O)c2c(OC)ccc(-c3ccc(OC)c4c(=O)cc(C(C)(C)C(=O)OC)oc34)c2o1` [Compound 39c, Dimethyl 2,2′-(5,5′-Dimethoxy-4,4′-dioxo-4H,4′H-[8,8′-bichromene]-2,2′-diyl)bis(2-methylpropanoate)], the “Chromenone cytotoxicity IC50, HL60” value (HL60 cells [2]) was “low micromolar range”, the IC50 at 48 h [7] was 24 µM and the “Cytotoxicity … (in words)” value (Jurkat cells [3]) was “highest levels of cytotoxicity”. The “Chromenone cytotoxicity IC50, L5178Y” value (L5178Y cells [4]) was “low micromolar range”.

Compound `COc1ccc(-c2ccc(OC)c3c(=O)c(C(C)=O)c(C)oc23)c2oc(C)c(C(C)=O)c(=O)c12` [Compound 42, 3,3′-Diacetyl-5,5′-dimethoxy-2,2′-dimethyl-4H,4′H-[8,8′-bichromene]-4,4′-dione] has an IC50 at 48 h [5] of over 50 µM, an IC50 at 48 h [8] of over 50 µM and an IC50 at 48 h [6] of over 50 µM.

`COc1ccc(-c2ccc(OC)c3c(=O)c(C(C)=O)c([C@@H](OC(C)=O)C(C)C)oc23)c2oc([C@@H](OC(C)=O)C(C)C)c(C(C)=O)c(=O)c12` [Compound 48c] gave an IC50 at 48 h [5] of over 50 µM, an IC50 at 48 h [7] of over 50 µM and an IC50 at 48 h [8] of over 50 µM.

In the case of Dicerandrol C, the IC50 (L5178Y cells [9]) is listed as 10 µM.

For Phomoxanthone A, the IC50 (KB cells [10]) is listed as 990 nM, the IC50 (L5178Y cells [9]) is listed as 0.3 µM and the IC50 (Jurkat cells [11]) is listed as 500 nM.

In the case of Phomoxanthone B, the IC50 (KB cells [10]) is listed as 4100 nM.

For Versixanthone F, the IC50 (HL60 cells [12]) is listed as 1000 nM.
